Experimental findings from ChEMBL document CHEMBL4130544, “Bioactive Asarone-Derived Phenylpropanoids from the Rhizome of Acorus tatarinowii Schott” (J Nat Prod, 2017) are described below.

The source made the active and inactive calls. The calls are words filed in the database; no cut-off is given here.

Broadly, the IC50 is the concentration that inhibits the measured activity by half.

The nature of assay [1]: Antioxidant activity assessed as AAPH radical scavenging activity at 12.5 uM by ORAC-FL assay. Type of assay: functional.
The target of assay [2] is T1, Alpha glucosidase (Homo sapiens, UniProt O43451+P10253+P14410+Q2M2H8). Briefly: Inhibition of alpha-glucosidase (unknown origin) at 400 uM using p-NPG as substrate pretreated for 10 mins followed by substrate addition measured after 5 mins. Type of assay: protein assay.
The target of assay [3] is Acetylcholinesterase (Homo sapiens) (UniProt P22303). Briefly: Inhibition of AChE (unknown origin) at 100 uM using acetylthiocholine iodide as substrate measured after 30 mins by Ellman's method. A general note: In Ellman's method for cholinesterases, released thiocholine reacts with DTNB.
The nature of assay [4]: Antioxidant activity assessed as DPPH radical scavenging activity at 100 uM incubated for 30 mins under dark condition. Type of assay: functional. In general terms: The DPPH test is a chemical assay of radical scavenging.
Assay [5] addresses T1, Alpha glucosidase. In words: Inhibition of alpha-glucosidase (unknown origin) using p-NPG as substrate pretreated for 10 mins followed by substrate addition measured after 5 mins. Type of assay: protein assay.

Acetylcholinesterase (Homo sapiens), sequence (P22303 whole entry): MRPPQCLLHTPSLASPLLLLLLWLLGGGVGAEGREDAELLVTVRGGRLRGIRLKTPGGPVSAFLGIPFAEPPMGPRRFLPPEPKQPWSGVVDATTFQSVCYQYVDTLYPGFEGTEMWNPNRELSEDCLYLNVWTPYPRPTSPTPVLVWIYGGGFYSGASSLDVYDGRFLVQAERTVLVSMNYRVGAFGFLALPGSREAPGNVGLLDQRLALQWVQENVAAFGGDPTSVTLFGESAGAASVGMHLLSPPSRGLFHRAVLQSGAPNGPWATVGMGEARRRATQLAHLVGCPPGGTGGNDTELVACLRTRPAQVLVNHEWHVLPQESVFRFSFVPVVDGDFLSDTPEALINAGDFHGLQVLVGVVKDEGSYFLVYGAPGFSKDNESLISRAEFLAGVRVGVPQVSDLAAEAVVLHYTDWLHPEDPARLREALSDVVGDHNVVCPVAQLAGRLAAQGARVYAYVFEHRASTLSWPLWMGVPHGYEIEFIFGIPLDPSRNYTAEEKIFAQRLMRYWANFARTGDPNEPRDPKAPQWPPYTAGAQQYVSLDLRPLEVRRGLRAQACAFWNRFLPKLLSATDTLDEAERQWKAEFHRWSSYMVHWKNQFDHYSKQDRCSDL

On to `O=C(O[C@@H]1Cc2c(O)cc(O)cc2O[C@@H]1c1cc(O)c(O)c(O)c1)c1cc(O)c(O)c(O)c1`, for which, in assay [1], the Activity amounted to 1.97 µMequiv/µM.

As to `CCO[C@H](c1cc(OC)c(OC)cc1OC)[C@@H](C)O`, the inhibition entry (on Alpha glucosidase [2]; in assay [3]) was “Active” throughout.

Consider `CCO[C@@H](c1cc(OC)c(OC)cc1OC)[C@H](C)O`, for which the inhibition entry (on Alpha glucosidase [2]; in assay [3]) was “Active” throughout.

In the case of `COc1cc([C@H]2Oc3c(OC)cc(CCCO)cc3[C@@H]2CO[C@@H]2O[C@H](CO)[C@@H](O)[C@H](O)[C@H]2O)ccc1O`, the inhibition result (at Alpha glucosidase [2]; in assay [3]) was “Active” in each case. Besides, the outcome in assay [1] and in assay [4] was Active.

Consider `COc1cc(OC)c([C@H](O)[C@@H](C)O)cc1OC` (relative stereo), for which the inhibition entry (on Alpha glucosidase [2]; in assay [3]) was “Active” throughout.

As for `COc1cc(OC)c([C@H](C)C(OC)OC)cc1OC`, the inhibition entry (at Alpha glucosidase [2]; in assay [3]) was “Active” throughout.

Consider `COc1cc(OC)c(OC)cc1C=O`, for which the inhibition result (at Alpha glucosidase [2]; in assay [3]) was “Active” in each case.

As for `COc1cc(OC)c([C@H](OC)[C@@H](C)O)cc1OC`, at Alpha glucosidase [2], the inhibition entry is “inactive”. In assay [3], the inhibition result was “Active”.

Take `COc1cc(OC)c([C@@H](OC)[C@@H](C)O)cc1OC`: the inhibition result (at Alpha glucosidase [2]; in assay [3]) was “Active” throughout.

Regarding `CCO[C@H](c1cc(OC)c(OC)cc1OC)[C@H](C)O`, the inhibition result (at Alpha glucosidase [2]; in assay [3]) was “Active” throughout.

For `COc1cc(OC)c([C@@H]2[C@@H](C)[C@H](c3cc(OC)c(OC)cc3OC)O[C@@H]2C)cc1OC` (racemic), the inhibition result (at Alpha glucosidase [2]; in assay [3]) was “Active” throughout.

Turning to `COc1ccc(CCCO)cc1OC`, the inhibition result (at Alpha glucosidase [2]; in assay [3]) was “Active” each time.

As for `COc1cc(OC)c(C(O)C(C)=O)cc1OC` (stereo not drawn), the inhibition result (on Alpha glucosidase [2]; in assay [3]) was “Active” in each case.

With `COc1cc([C@H]2Oc3c(OC)cc(CCCO[C@@H]4O[C@H](CO)[C@@H](O)[C@H](O)[C@H]4O)cc3[C@@H]2CO)ccc1O`, the inhibition result (on Alpha glucosidase [2]; in assay [3]) was “Active” throughout. Further, the Activity in assay [1] came out at 3.17 µMequiv/µM. In assay [4], the result was Active.

With `COc1cc([C@H]2OC[C@H]3[C@@H]2CO[C@@H]3c2ccc(O)c(OC)c2)ccc1O` (racemic), the inhibition result (on Alpha glucosidase [2]; in assay [3]) was “Active” throughout. The outcome in assay [1] and in assay [4] was Active.

In the case of `COc1cc(OC)c([C@H](OC)[C@H](C)O)cc1OC`, the inhibition entry (on Alpha glucosidase [2]; in assay [3]) was “Active” in each case.

For the molecule `COc1cc(OC)c(C(C)=O)cc1OC`, the inhibition result (at Alpha glucosidase [2]; in assay [3]) was “Active” each time.

Regarding `CCO[C@@H](c1cc(OC)c(OC)cc1OC)[C@@H](C)O`, the inhibition entry (on Alpha glucosidase [2]; in assay [3]) was “Active” in each case.

On to `COc1cc(OC)c([C@@H](OC)[C@H](C)O)cc1OC`, for which the inhibition entry (at Alpha glucosidase [2]; in assay [3]) was “Active” in each case. Moreover, the IC50 at Alpha glucosidase [5] was determined as 80.6 µM.

As to `COc1cc(OC)c([C@@H](O)[C@@H](C)O)cc1OC` (relative stereo), the inhibition result (at Alpha glucosidase [2]; in assay [3]) was “Active” throughout.

`COc1cc(OC)c([C@@H](C)C(OC)OC)cc1OC`: the inhibition entry (on Alpha glucosidase [2]; in assay [3]) was “Active” each time.
